From US20100130598A1, “METHODS FOR INDUCING PROGRAMMED CELL DEATH” (Novogen Research Pty Ltd., priority 2008, published 2010)

How the values were obtained:
Format in all cases: cell-based, human
8 phospho-proteins = assay: Analysis of phospho-proteins using xMAP technology (Beadlyte 8-plex); settings: EOC cells, 10 μg/ml
Description: Analysis of phoshpo-proteins using xMAP technology. After treatment, cells were lysed and lysates were used to measure the phosphorylation status of 8 proteins using the Beadlyte® 8-plex Multi-Pathway Signaling kit (Millipore, Billerica, Mass.) according to manufacturer's instructions. Data was acquired using the BioPlex System (BioRad, Hercules, Calif.).

Beclin-1 / Bcl2 = assay: Beclin-1 immunoprecipitation from mitochondrial fraction, probed for Bcl2 and Bak; settings: 10 μg/ml, 1 h
Experimental: SDS-PAGE and Western blots. Cell lysates (20 μg protein) were denatured in sample buffer (2.5% SDS, 10% glycerol, 5% β-mercapto-ethanol, 0.15 M Tris (pH=6.8) and 0.01% bromophenol blue) and subjected to 12% SDS-PAGE as previously described (Kamsteeg et al, 2003). The following antibodies and concentrations were used: mouse anti-XIAP (BD, 1:1,000), rabbit anti-MAP LC3 (1:200), rabbit anti-actin (Sigma, 1:10,000), rabbit anti-phosphorylated Akt (Cell Signaling, 1:1,000), rabbit anti-Akt (Cell Signaling, 1:1000), rabbit anti-phosphorylated mTOR (Cell Signaling, 1:1000), rabbit anti-mTOR (Cell Signaling, 1:1000), rabbit anti-cytochrome c (Clontech Laboratories, Inc, Mountainview, Calif., 1:100), rabbit anti-Omi (R&D Systems, Minneapolis, Minn., 1:5000), rabbit anti-Bid (Cell Signaling, 1:1000), mouse anti-Bax (BD Pharmingen, 1:250), rabbit anti-VDAC (Sigma Aldrich, 1:2000), mouse anti-Bcl2 (BD Pharmingen, 1:500), rabbit anti-AIF (Sigma Aldrich, 1:1000), rabbit anti-EndoG (Sigma Aldrich, 1:1000), mouse anti-topoisomerase I (BD Pharmingen, 1:10,000). Proteins were visualized using enhanced chemiluminescence (Pierce, Rockford Ill.).
Immunoprecipitation. […]

MIAPaCa-2 cells = assay: Apoptosis/necrosis by FACS (Annexin-V-FITC/PI), MIAPaCa-2
Experimental: (§1) Cells. Human pancreatic cell lines HPAC, MIAPaCa-2 and PANC-1 were obtained from the ATCC. (Manassas, Va.). The cells were maintained in DMEM media with Gln and high glucose (Mediatech, Manassas, Va.) with 10% fetal bovine serum (FBS, HyClone, Logan, Utah) and pencillin/streptomycin.
(§2) FACS Analysis. Apoptosis was measured by FACS analysis using Annexin-V-FITC and propidium iodide (PI) (Biovision, Mountain View, Calif.) as probes (Ahn et al., 2003). Mitochondrial membrane potential was measured by FACS analysis using JC-1 (Biovision) as a probe (Ahn et al., 2003). Cell cycle was analyzed on ethanol-fixed, RNaseA-treated cells staining with PI. In each spectrum, 10,000 gated events were recorded and analyzed with a FACSCalibur (BD Biosciences. San Jose, Calif.). All experiments were done in triplicate, error bars represent one standard deviation. Caspase inhibitor I (zVAD-fmk) was obtained from Calbiochem.

HPAC cells [1] = assay: Western blot analysis of apoptosis regulatory proteins, p21 and p53, HPAC; settings: 10 μM
Description: as §1
Antibodies. Antibodies utilised in this study specific to p53 and, p21 were obtained from (Calbiochem, EMD, San Diego, Calif.), Caspase 9, XIAP, COX IV, Bcl2 and Akt (Cell Signaling Technology, Danvers, Mass.), Caspase 2, Cytochrome c and Bid (BD Pharmingen, San Diego, Calif.). GAPDH (RDI, Concord, Mass.) or β-actin (Sigma, St. Louis, Mo.) was used as a housekeeping gene to standardize the protein loading on the gels and blots.
Western blot analysis. Cells were seeded on 100 mm tissue culture plates and grown overnight to ˜90% confluence. Cells were then treated with the drug combinations for indicated time points. After the final treatment step, the cells were lysed with 500 μL of a lysis buffer containing 1% Nonidet P-40, 0.1% SDS, 0.5% deoxycholate, 150 mM NaCl, 50 mM Tris-HCl pH7.5, 1 mM EDTA, 1 mM PMSF and protease inhibitors (Roche) on ice for 30 minutes. Cell lysates were harvested with a sterile cell scraper and centrifuged at 15,000×g for 15 minutes to remove cell debris. Protein was assayed by the BCA method (Pierce) and 50 μg aliquots were separated on 12%, T, 2.6%C SDS-PAGE gels. Proteins were electrophoretically transferred to PVDF membranes (Immobilon P, Millipore, Billerica, Mass.) by the wet transfer method. These membranes were probed with specific antibodies and with anti-GAPDH which was used as the housekeeping gene to standardize the protein loading. The blots were developed on X-ray films using HRP-conjugated secondary antibodies (Southern Biotech, Birmingham, Ala.) and a chemiluminescent substrate (ECL, Amersham, N.Y.).

HPAC cells [2] = assay: Mitochondrial membrane potential by FACS (JC-1), HPAC; settings: dose-dependent, 48 hrs of treatment
Experimental: as §1, §2

PANC-1 cells = assay: Cell cycle analysis by FACS (PI), PANC-1; settings: PANC-1, 10 μM
Experimental: as §1, §2

[3] = MIAPaCa-2, dose-escalating, 48 hr exposure

Compound: COc1ccc(C2c3ccc(O)c(C)c3OCC2c2ccc(O)cc2)cc1 (stereo not drawn) [Compound 1, 3-(4-hydroxyphenyl)-4-(4-methoxyphenyl)-8-methylchroman-7-ol]
- ERK, pJNK, pSTAT5a/b, and pCREB (xMAP phospho-protein panel) (8 phospho-proteins): Up-regulation
- p-S6k (xMAP phospho-protein panel) (8 phospho-proteins): down-regulates
- pIκB, pSTAT3, and p38 (xMAP phospho-protein panel) (8 phospho-proteins): minimal or no effect
- Bak in complex with Beclin-1 (Beclin-1 / Bcl2): not observed
- Bcl2 in complex with Beclin-1 (Beclin-1 / Bcl2; vs no treatment control): Higher levels

Compound: COc1ccc(C2c3ccc(O)cc3OCC2c2ccc(O)cc2)cc1 (stereo not drawn) [Compound 10, 3-(4-hydroxyphenyl)-4-(4-methoxyphenyl)chroman-7-ol]
- effect of zVAD-fmk pre-treatment on induced necrosis (MIAPaCa-2 cells; MIAPaCa-2, 10 μM zVAD-fmk 1 h before 10 μM Compound 10): inhibited
- effect of zVAD-fmk pre-treatment on induced apoptosis (MIAPaCa-2 cells; MIAPaCa-2, 10 μM zVAD-fmk 1 h pre-treatment, 10 μM Compound 10 or 50 ng/mL TRAIL): apparently enhanced
- apoptosis (MIAPaCa-2 cells; [3]): induced apoptosis in a dose-dependent fashion
- necrosis (MIAPaCa-2 cells; [3]): Very little necrosis
- expression of p53 (HPAC cells [1]; HPAC (wild type p53), by 48 hr): elevated
- Bid cleavage (HPAC cells [1]; HPAC): transitory increase
- Caspase 2 cleavage (HPAC cells [1]; HPAC): cleaved to a lesser extent
- cleavage of Caspase 3 (HPAC cells [1]; HPAC): did not cause significant cleavage
- level of XIAP (HPAC cells [1]; HPAC): reduced
- levels of Bcl2 (HPAC cells [1]; HPAC): lowered
- p21 (HPAC cells [1]; HPAC): essentially unchanged
- total Akt (HPAC cells [1]; HPAC, early timepoint (4 hr)): reduced
- cleaved caspase 9 (17kd) (HPAC cells [1]; HPAC, time course 0-48 hrs): initial drop in cleaved caspase 9 (17kd) followed by an increase after 16 hr
- mitochondrial depolarization (HPAC cells [2]): depolarized
- time of G2/M arrest post treatment (PANC-1 cells): 4 to 24 h
- time remained in G2/M arrest (PANC-1 cells): at least 48 hrs
